Where “and” joins values, the source holds several entries; their conditions need not be identical. Identical values can stand only once.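 Cells were grown in 96-well plates and exposed to each compound for 48 hours at five concentrations; endpoints were interpolated linearly between bracketing concentrations, or set to the highest concentration if not reached. At the GI50, growth is halved. The concentration for full growth arrest is given as TGI.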

The test system of the first assay is COLO 205 colon. Kind of assay: growth of human tumour cells (NCI), 48 h.
`COc1cc2c(cc1O)C1Cc3ccc(OC)c(O)c3C(C2)N1C` (centres undefined): the TGI was > 100 µM.
For `CCOC(=O)CNC(=O)c1ccccc1Nc1ccnc(C(F)(F)F)c1`, the GI50 is 17.8 µM and the TGI was > 67.2 µM.
`COc1ccc2c(c1)[C@@]13CCCC[C@H]1[C@@H](C2)N(C)CC3=O` had a TGI of 31.2 µM.
With `COc1cccc(/C(COc2ccc3c(c2)oc(=O)c2cc(OC)ccc23)=N/O)c1`, the GI50 is 4.25 µM and the TGI was > 100 µM.
As for `N=C(N)SCc1cccc(-c2nc3ccccc3c(=O)o2)c1`, the TGI is > 100 µM.
With `COc1cc2c(c(OC)n1)[C@]1(O)[C@H](O)[C@H](CN(C)C)[C@@H](c3ccccc3)[C@]1(c1ccc(C#N)cc1)O2`, the GI50 is 0.0114 µM and < 0.0111 µM; the TGI was 0.0442 µM and 0.0572 µM.
`C=CCSS/C=C/CS(=O)CC=C` (centres undefined) gave a TGI of 66.5 µM.
As for `COc1ccc(Nc2c3ccccc3nc3occ(Cl)c23)cc1`, the GI50 is < 0.01 µM and the TGI is 4.89 µM.
Taken in the same sequence, the figures for `O=C(/C=C/c1cc(CN2CCOCC2)c(O)c2ncccc12)c1cc(CN2CCOCC2)c(O)c2ncccc12` were 0.0842 µM and > 100 µM.

The next assay relates to ACHN renal. Kind of assay: growth of human tumour cells (NCI), 48 h.
The compound `Cc1c(C2=C(Br)C(=O)N(C)C2=O)c(=O)n(C)c(=O)n1C` gave a TGI of 94.3 µM.
The same measure, in the same setting: as for `N#CC(=NCCO)C1=C(O)c2ccccc2C1=O`, the figure is > 100 µM.
Take `NC(CS/C(Cl)=C/Cl)C(=O)O` (centres undefined): the GI50 was 78.9 µM and the TGI was > 100 µM.
Taken in the same sequence, the figures for `CCn1c(CO)nn(-c2cc(O[C@@H](C)C(F)(F)F)c(C(=O)Nc3c(F)cccc3Cl)cc2F)c1=O` were < 0.0122 µM and > 100 µM.
As to `CC1CCC(=O)C(C(=O)CC2CC(=O)NC(=O)C2)C1` (centres undefined), the TGI is > 100 µM.
In the case of `O=C(Nc1ccc(CO)cc1)c1coc2ccccc2c1=O`, the GI50 was > 100 µM and the TGI was > 100 µM.
`CC(=O)/C=C/c1ccc(C#Cc2ccccc2)s1`: the GI50 was 16.3 µM and the TGI was found to be 29.8 µM.
Take `COc1ccc2c(c1)C(C)Cc1c(ncnc1-n1c(C)nc3ccccc31)N2C` (centres undefined): the GI50 is 6.56 µM and the TGI was found to be 23.1 µM.
With `CC(C)OC(=O)NNc1cc(Cl)ccc1Cl`, the TGI was > 100 µM.
Consider `COc1ccc2c(O)cc3c(c2c1)[C@H](CCl)CN3C(=O)c1cc2cc(NC(=O)CCN3CCOCC3)ccc2[se]1`, for which the GI50 is < 0.001 µM and the TGI was < 0.001 µM.
Turning to `COc1cc2c(cc1O)C1Cc3ccc(OC)c(O)c3C(C2)N1C` (centres undefined), the TGI is > 100 µM.
On to `CCOC(=O)CNC(=O)c1ccccc1Nc1ccnc(C(F)(F)F)c1`, for which the GI50 was > 58.2 µM and the TGI is > 100 µM.
Turning to `COc1ccc2c(c1)[C@@]13CCCC[C@H]1[C@@H](C2)N(C)CC3=O`, the TGI came to 30.4 µM.
Turning to `COc1cccc(/C(COc2ccc3c(c2)oc(=O)c2cc(OC)ccc23)=N/O)c1`, the GI50 was 3.64 µM and the TGI was > 100 µM.
`N=C(N)SCc1cccc(-c2nc3ccccc3c(=O)o2)c1`: the TGI is > 100 µM.
Consider `COc1cc2c(c(OC)n1)[C@]1(O)[C@H](O)[C@H](CN(C)C)[C@@H](c3ccccc3)[C@]1(c1ccc(C#N)cc1)O2`, for which the GI50 was < 0.0116 µM and 0.0117 µM; the TGI was 0.148 µM and 0.558 µM.
Consider `C=CCSS/C=C/CS(=O)CC=C` (centres undefined), for which the TGI was > 100 µM.
For the compound `COc1ccc(Nc2c3ccccc3nc3occ(Cl)c23)cc1`, the GI50 was 1.44 µM and the TGI was > 100 µM.
Turning to `O=C(/C=C/c1cc(CN2CCOCC2)c(O)c2ncccc12)c1cc(CN2CCOCC2)c(O)c2ncccc12`, the GI50 was 0.0329 µM and the TGI is > 100 µM.

A further assay deals with NCI-H460 lung. The experiment in a line: growth of human tumour cells (NCI), 48 h.
For `Cc1c(C2=C(Br)C(=O)N(C)C2=O)c(=O)n(C)c(=O)n1C`, the TGI is > 100 µM.
Still for that read-out and setting: then `N#CC(=NCCO)C1=C(O)c2ccccc2C1=O`, with > 100 µM.
Regarding `NC(CS/C(Cl)=C/Cl)C(=O)O` (centres undefined), the GI50 was 0.427 µM and the TGI stood at 2 µM.
Regarding `CCn1c(CO)nn(-c2cc(O[C@@H](C)C(F)(F)F)c(C(=O)Nc3c(F)cccc3Cl)cc2F)c1=O`, the GI50 is < 0.01 µM and the TGI is > 33.9 µM.
For the compound `CC1CCC(=O)C(C(=O)CC2CC(=O)NC(=O)C2)C1` (centres undefined), the TGI was > 100 µM.
For the compound `O=C(Nc1ccc(CO)cc1)c1coc2ccccc2c1=O`, the GI50 was > 100 µM and the TGI is > 100 µM.
On to `CC(=O)/C=C/c1ccc(C#Cc2ccccc2)s1`, for which the GI50 is 16.2 µM and the TGI worked out at 33.3 µM.
As to `COc1ccc2c(c1)C(C)Cc1c(ncnc1-n1c(C)nc3ccccc31)N2C` (centres undefined), the GI50 was 3.85 µM and the TGI is 14.4 µM.
Regarding `CC(C)OC(=O)NNc1cc(Cl)ccc1Cl`, the TGI was > 100 µM.
`COc1ccc2c(O)cc3c(c2c1)[C@H](CCl)CN3C(=O)c1cc2cc(NC(=O)CCN3CCOCC3)ccc2[se]1`: the GI50 is < 0.001 µM and the TGI turned out to be 1.09 µM.
On to `COc1cc2c(cc1O)C1Cc3ccc(OC)c(O)c3C(C2)N1C` (centres undefined), for which the TGI was > 100 µM.
Take `CCOC(=O)CNC(=O)c1ccccc1Nc1ccnc(C(F)(F)F)c1`: the GI50 was 29.8 µM and the TGI is > 68.1 µM.
In turn, `COc1ccc2c(c1)[C@@]13CCCC[C@H]1[C@@H](C2)N(C)CC3=O` yielded a TGI of 69.5 µM.
For `COc1cccc(/C(COc2ccc3c(c2)oc(=O)c2cc(OC)ccc23)=N/O)c1`, the GI50 was 3.81 µM and the TGI is > 100 µM.
Take `N=C(N)SCc1cccc(-c2nc3ccccc3c(=O)o2)c1`: the TGI was > 100 µM.
For `COc1cc2c(c(OC)n1)[C@]1(O)[C@H](O)[C@H](CN(C)C)[C@@H](c3ccccc3)[C@]1(c1ccc(C#N)cc1)O2`, the GI50 was < 0.01 µM; the TGI was 3.48 µM and 6.88 µM.
For `C=CCSS/C=C/CS(=O)CC=C` (centres undefined), the TGI is > 100 µM.
Consider `COc1ccc(Nc2c3ccccc3nc3occ(Cl)c23)cc1`, for which the GI50 was < 0.01 µM and the TGI came out at 8.18 µM.
`O=C(/C=C/c1cc(CN2CCOCC2)c(O)c2ncccc12)c1cc(CN2CCOCC2)c(O)c2ncccc12`: the GI50 is < 0.0169 µM and the TGI was > 55.9 µM.

A further assay relates to EKVX NSCLC. The experiment in a line: growth of human tumour cells (NCI), 48 h.
Take `Cc1c(C2=C(Br)C(=O)N(C)C2=O)c(=O)n(C)c(=O)n1C`: the TGI was determined as 41.8 µM.
As to `N#CC(=NCCO)C1=C(O)c2ccccc2C1=O`, the TGI is > 100 µM.
With `NC(CS/C(Cl)=C/Cl)C(=O)O` (centres undefined), the GI50 was 31.7 µM and the TGI is > 100 µM.
For the compound `CCn1c(CO)nn(-c2cc(O[C@@H](C)C(F)(F)F)c(C(=O)Nc3c(F)cccc3Cl)cc2F)c1=O`, the GI50 was 8.47 µM and the TGI is > 100 µM.
Turning to `CC1CCC(=O)C(C(=O)CC2CC(=O)NC(=O)C2)C1` (centres undefined), the TGI is > 100 µM.
Regarding `O=C(Nc1ccc(CO)cc1)c1coc2ccccc2c1=O`, the GI50 was > 100 µM and the TGI is > 100 µM.
As for `CC(=O)/C=C/c1ccc(C#Cc2ccccc2)s1`, the GI50 is 17.7 µM and the TGI came to 31.6 µM.
Consider `COc1ccc2c(c1)C(C)Cc1c(ncnc1-n1c(C)nc3ccccc31)N2C` (centres undefined), for which the GI50 is 3.94 µM and the TGI was 21.8 µM.
As to `CC(C)OC(=O)NNc1cc(Cl)ccc1Cl`, the TGI is > 100 µM.
In the case of `COc1ccc2c(O)cc3c(c2c1)[C@H](CCl)CN3C(=O)c1cc2cc(NC(=O)CCN3CCOCC3)ccc2[se]1`, the GI50 was < 0.001 µM and the TGI turned out to be 0.00471 µM.
As to `COc1cc2c(cc1O)C1Cc3ccc(OC)c(O)c3C(C2)N1C` (centres undefined), the TGI was > 100 µM.
Consider `CCOC(=O)CNC(=O)c1ccccc1Nc1ccnc(C(F)(F)F)c1`, for which the GI50 was 30.6 µM and the TGI is > 96 µM.
Compound `COc1ccc2c(c1)[C@@]13CCCC[C@H]1[C@@H](C2)N(C)CC3=O` returned a TGI of 43.4 µM.
As for `COc1cccc(/C(COc2ccc3c(c2)oc(=O)c2cc(OC)ccc23)=N/O)c1`, the GI50 was 16.1 µM and the TGI was > 100 µM.
With `N=C(N)SCc1cccc(-c2nc3ccccc3c(=O)o2)c1`, the TGI was > 100 µM.
Turning to `COc1cc2c(c(OC)n1)[C@]1(O)[C@H](O)[C@H](CN(C)C)[C@@H](c3ccccc3)[C@]1(c1ccc(C#N)cc1)O2`, the GI50 is 0.0305 µM and 0.0237 µM; the TGI was 2.81 µM and 2.54 µM.
On to `C=CCSS/C=C/CS(=O)CC=C` (centres undefined), for which the TGI was > 100 µM.
For the compound `COc1ccc(Nc2c3ccccc3nc3occ(Cl)c23)cc1`, the GI50 was 1.76 µM and the TGI was determined as 6.89 µM.
Take `O=C(/C=C/c1cc(CN2CCOCC2)c(O)c2ncccc12)c1cc(CN2CCOCC2)c(O)c2ncccc12`: the GI50 was 0.077 µM and the TGI is > 100 µM.

For the origin of these results see PubChem BioAssay (NCI).
